Measurements reported in the kinase profiling compilation of Christmann-Franck et al. (2016).

Legend:
Assay in all cases: KINOMEscan competition binding
Settings in all cases: compound 10.0 µM
[1] = target: STK11 (human) (UniProt Q15831)
[2] = target: MAPK10 (human) (UniProt P53779)
[3] = target: NTRK2 (human) (UniProt Q16620)
[4] = target: ALK (human) (UniProt Q9UM73)
[5] = target: MAP3K7 (human) (UniProt O43318)
[6] = target: CDC42BPB (human) (UniProt Q9Y5S2)
[7] = target: ROS1 (human) (UniProt P08922)
[8] = target: MAK (human) (UniProt P20794)
[9] = target: DCLK2 (human) (UniProt Q8N568)
[10] = target: PTK6 (human) (UniProt Q13882)
[11] = target: PKN2 (human) (UniProt Q16513)
[12] = target: DYRK1B (human) (UniProt Q9Y463)
[13] = target: CAMK2B (human) (UniProt Q13554)
[14] = target: PKN1 (human) (UniProt Q16512)
[15] = target: MAP3K1 (human) (UniProt Q13233)
[16] = target: SIK2 (human) (UniProt Q9H0K1)
[17] = target: PAK4 (human) (UniProt O96013)
[18] = target: RPS6KA5 KD1 (human) (UniProt O75582)
[19] = target: RAF1 (human) (UniProt P04049)
[20] = target: PRKX (human) (UniProt P51817)
[21] = target: YES1 (human) (UniProt P07947)
[22] = target: NTRK1 (human) (UniProt P04629)
[23] = target: GRK1 (human) (UniProt Q15835)
[24] = target: EPHB6 (human) (UniProt O15197)
[25] = target: CSNK1G1 (human) (UniProt Q9HCP0)
[26] = target: BMPR2 (human) (UniProt Q13873)
[27] = target: ADCK4 (human) (UniProt Q96D53)
[28] = target: GAK (human) (UniProt O14976)
[29] = target: EPHA6 (human) (UniProt Q9UF33)
[30] = test system: EGFR (human), P00533 [752-759 del]
[31] = target: CDK5 (human) (UniProt Q00535)
[32] = target: LCK (human) (UniProt P06239)
[33] = target: MERTK (human) (UniProt Q12866)
[34] = target: PRKCD (human) (UniProt Q05655)
[35] = target: CDK7 (human) (UniProt P50613)
[36] = test system: EGFR (human), P00533 [T790M/L858R]
[37] = target: MARK2 (human) (UniProt Q7KZI7)
[38] = target: MKNK2 (human) (UniProt Q9HBH9)
[39] = target: MELK (human) (UniProt Q14680)
[40] = target: HUNK (human) (UniProt P57058)

PKN2 (human), sequence (Q16513 whole entry, looked up): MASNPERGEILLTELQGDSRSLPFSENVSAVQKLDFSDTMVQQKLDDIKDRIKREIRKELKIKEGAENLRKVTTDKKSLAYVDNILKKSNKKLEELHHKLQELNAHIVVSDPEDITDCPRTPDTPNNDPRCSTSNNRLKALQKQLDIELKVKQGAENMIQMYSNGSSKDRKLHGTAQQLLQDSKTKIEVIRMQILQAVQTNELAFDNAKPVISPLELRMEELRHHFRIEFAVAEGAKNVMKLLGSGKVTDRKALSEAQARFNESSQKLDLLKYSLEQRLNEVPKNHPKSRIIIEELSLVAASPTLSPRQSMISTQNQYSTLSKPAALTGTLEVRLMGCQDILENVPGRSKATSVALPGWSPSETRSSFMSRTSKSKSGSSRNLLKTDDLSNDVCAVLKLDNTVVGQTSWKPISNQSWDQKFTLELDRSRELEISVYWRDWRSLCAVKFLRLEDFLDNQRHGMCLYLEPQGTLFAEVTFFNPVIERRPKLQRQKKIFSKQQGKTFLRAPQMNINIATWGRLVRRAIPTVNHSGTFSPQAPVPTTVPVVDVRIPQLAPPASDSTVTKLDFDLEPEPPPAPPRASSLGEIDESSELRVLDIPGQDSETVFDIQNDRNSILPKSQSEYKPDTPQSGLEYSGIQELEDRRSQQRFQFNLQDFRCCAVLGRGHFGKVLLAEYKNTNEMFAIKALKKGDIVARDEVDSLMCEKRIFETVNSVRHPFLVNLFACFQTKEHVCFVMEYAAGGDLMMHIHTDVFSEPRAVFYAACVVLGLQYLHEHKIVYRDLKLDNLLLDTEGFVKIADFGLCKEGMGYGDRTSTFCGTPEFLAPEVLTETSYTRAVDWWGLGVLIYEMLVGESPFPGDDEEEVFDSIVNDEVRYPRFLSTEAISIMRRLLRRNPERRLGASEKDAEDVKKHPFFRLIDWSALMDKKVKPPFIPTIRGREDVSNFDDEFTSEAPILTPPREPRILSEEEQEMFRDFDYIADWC
EPHA6 (human), sequence (Q9UF33 whole entry, looked up): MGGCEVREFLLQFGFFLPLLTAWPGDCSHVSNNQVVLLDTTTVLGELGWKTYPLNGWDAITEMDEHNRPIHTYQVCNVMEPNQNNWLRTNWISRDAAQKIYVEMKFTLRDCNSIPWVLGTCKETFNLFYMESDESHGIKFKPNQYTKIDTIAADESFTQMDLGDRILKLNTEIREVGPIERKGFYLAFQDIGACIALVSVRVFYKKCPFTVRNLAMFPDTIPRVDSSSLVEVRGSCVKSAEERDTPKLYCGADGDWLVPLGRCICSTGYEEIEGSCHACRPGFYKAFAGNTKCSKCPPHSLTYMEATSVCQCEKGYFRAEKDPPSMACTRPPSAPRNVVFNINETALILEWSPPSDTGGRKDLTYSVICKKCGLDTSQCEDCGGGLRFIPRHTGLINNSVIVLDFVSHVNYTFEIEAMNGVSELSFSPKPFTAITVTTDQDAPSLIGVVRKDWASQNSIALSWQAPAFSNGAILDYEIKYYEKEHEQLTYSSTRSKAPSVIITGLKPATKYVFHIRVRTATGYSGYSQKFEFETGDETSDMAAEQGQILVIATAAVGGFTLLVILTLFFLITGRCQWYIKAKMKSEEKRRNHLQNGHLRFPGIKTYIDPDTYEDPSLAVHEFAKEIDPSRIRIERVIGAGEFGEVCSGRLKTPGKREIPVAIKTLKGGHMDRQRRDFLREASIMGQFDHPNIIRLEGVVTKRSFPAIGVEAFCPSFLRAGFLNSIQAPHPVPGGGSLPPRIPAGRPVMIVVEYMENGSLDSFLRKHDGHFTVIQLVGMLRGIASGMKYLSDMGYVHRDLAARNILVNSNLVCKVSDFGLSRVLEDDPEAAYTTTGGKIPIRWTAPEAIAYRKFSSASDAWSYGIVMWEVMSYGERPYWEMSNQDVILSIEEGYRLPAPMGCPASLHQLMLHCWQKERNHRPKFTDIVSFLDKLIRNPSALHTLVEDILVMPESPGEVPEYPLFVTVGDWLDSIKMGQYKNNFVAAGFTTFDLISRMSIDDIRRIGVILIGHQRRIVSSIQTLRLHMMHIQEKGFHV
EPHB6 (human), sequence (O15197 whole entry, looked up): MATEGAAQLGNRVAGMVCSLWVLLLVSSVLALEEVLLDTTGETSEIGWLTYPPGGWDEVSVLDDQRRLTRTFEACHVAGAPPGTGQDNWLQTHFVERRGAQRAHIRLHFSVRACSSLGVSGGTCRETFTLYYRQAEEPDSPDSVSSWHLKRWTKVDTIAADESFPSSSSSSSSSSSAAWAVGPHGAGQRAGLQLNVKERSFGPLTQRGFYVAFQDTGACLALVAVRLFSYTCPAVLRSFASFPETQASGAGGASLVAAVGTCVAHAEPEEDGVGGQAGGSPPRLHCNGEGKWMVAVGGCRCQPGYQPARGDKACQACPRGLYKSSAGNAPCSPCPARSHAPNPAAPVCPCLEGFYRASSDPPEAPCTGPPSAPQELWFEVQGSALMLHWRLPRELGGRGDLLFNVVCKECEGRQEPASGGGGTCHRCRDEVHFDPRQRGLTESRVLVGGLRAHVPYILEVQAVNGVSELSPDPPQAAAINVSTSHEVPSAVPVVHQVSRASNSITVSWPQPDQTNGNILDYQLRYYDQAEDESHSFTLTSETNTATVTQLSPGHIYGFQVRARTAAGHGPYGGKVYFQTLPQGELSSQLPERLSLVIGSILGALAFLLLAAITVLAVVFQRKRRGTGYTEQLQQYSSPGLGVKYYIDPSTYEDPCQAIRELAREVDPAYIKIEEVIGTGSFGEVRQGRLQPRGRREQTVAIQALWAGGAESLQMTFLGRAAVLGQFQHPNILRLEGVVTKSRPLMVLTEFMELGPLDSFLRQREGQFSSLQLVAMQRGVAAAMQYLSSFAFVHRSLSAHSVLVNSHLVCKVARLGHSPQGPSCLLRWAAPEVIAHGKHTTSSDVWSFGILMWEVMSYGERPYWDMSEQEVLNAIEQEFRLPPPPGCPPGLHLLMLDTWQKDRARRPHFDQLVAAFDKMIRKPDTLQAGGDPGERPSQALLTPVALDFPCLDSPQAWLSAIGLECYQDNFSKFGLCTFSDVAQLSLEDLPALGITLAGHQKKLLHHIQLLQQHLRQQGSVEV
DCLK2 (human), sequence (Q8N568 whole entry, looked up): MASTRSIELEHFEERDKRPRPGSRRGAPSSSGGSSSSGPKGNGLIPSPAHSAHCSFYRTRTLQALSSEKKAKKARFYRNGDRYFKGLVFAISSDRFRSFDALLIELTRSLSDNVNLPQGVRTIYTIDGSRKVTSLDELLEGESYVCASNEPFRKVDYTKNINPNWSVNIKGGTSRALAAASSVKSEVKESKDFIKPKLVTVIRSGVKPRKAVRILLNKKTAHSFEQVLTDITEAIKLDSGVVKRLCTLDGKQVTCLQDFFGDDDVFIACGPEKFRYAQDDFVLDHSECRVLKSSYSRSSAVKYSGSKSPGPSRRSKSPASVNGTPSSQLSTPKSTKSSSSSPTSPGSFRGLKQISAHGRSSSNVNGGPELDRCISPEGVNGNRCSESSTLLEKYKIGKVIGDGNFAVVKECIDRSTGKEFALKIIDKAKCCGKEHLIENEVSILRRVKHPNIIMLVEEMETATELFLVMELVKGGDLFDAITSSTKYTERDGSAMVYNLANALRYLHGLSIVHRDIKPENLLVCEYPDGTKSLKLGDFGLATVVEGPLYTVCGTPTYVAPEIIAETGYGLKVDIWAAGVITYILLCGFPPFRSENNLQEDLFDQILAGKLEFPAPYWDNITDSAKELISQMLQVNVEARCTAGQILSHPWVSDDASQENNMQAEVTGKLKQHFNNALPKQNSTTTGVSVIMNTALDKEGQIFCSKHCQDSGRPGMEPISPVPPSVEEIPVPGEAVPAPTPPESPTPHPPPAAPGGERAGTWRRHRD
MAP3K7 (human), sequence (O43318 whole entry, looked up): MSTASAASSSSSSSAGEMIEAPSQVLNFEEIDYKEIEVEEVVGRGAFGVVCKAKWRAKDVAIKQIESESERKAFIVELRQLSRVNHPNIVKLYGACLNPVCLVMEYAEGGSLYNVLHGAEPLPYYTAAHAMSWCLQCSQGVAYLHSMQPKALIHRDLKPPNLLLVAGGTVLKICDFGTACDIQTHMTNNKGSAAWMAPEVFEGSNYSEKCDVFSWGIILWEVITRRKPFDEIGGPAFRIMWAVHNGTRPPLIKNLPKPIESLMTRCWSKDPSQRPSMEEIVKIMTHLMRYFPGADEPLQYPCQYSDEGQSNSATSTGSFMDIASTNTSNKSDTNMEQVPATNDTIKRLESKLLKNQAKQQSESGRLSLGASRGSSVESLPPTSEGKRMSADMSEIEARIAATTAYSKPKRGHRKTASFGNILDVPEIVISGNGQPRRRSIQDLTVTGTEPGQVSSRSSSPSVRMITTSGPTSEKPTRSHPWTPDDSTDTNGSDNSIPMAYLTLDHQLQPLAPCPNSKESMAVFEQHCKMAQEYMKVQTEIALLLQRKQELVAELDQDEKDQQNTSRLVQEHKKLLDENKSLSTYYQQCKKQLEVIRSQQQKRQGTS
MAPK10 (human), sequence (P53779 whole entry, looked up): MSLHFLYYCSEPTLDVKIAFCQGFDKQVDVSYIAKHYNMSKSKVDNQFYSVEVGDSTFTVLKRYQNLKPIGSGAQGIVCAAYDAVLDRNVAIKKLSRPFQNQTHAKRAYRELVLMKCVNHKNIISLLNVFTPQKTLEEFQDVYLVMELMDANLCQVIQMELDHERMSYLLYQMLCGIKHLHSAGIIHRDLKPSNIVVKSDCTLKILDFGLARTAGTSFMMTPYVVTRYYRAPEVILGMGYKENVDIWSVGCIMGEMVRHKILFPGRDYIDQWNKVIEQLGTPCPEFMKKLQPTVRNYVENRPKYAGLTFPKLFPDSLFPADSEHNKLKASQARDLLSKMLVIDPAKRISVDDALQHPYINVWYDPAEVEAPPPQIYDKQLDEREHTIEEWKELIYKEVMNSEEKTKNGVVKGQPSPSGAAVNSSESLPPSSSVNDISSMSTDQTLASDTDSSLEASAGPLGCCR

SMILES	kinase still bound, per cent of control [1] [%]	kinase still bound, per cent of control [2] [%]	kinase still bound, per cent of control [3] [%]	kinase still bound, per cent of control [4] [%]	kinase still bound, per cent of control [5] [%]	kinase still bound, per cent of control [6] [%]	kinase still bound, per cent of control [7] [%]	kinase still bound, per cent of control [8] [%]	kinase still bound, per cent of control [9] [%]	kinase still bound, per cent of control [10] [%]	kinase still bound, per cent of control [11] [%]	kinase still bound, per cent of control [12] [%]	kinase still bound, per cent of control [13] [%]	kinase still bound, per cent of control [14] [%]	kinase still bound, per cent of control [15] [%]	kinase still bound, per cent of control [16] [%]	kinase still bound, per cent of control [17] [%]	kinase still bound, per cent of control [18] [%]	kinase still bound, per cent of control [19] [%]	kinase still bound, per cent of control [20] [%]	further results
CCN1CCN(C(=O)Cc2ccc(Nc3ncc(F)c(Nc4ccc(C(=O)Nc5ccccc5Cl)cc4)n3)cc2)CC1	12	0.8	27	22	2.9	100	34	100	88	16	100	46	72	56	97	20	47	100	81	76	kinase still bound, per cent of control [21]: 60%; kinase still bound, per cent of control [22]: 19%; kinase still bound, per cent of control [23]: 100%; kinase still bound, per cent of control [24]: 15%; kinase still bound, per cent of control [25]: 100%; kinase still bound, per cent of control [26]: 25%; kinase still bound, per cent of control [27]: 0.45%; kinase still bound, per cent of control [28]: 5.7%; kinase still bound, per cent of control [29]: 46%; kinase still bound, per cent of control [30]: 56%; kinase still bound, per cent of control [31]: 79%; kinase still bound, per cent of control [32]: 6.6%; kinase still bound, per cent of control [33]: 2%; kinase still bound, per cent of control [34]: 60%; kinase still bound, per cent of control [35]: 22%; kinase still bound, per cent of control [36]: 76%; kinase still bound, per cent of control [37]: 50%; kinase still bound, per cent of control [38]: 5.6%; kinase still bound, per cent of control [39]: 55%; kinase still bound, per cent of control [40]: 49%
C=CC(=O)Nc1cc(-n2c(=O)ccc3cnc4ccc(-c5cn[nH]c5)cc4c32)ccc1C	100	1.8	51	100	0.35	97	100	94	100	100	82	1.8	44	100	97	62	100	100	100	100	kinase still bound, per cent of control [21]: 94%; kinase still bound, per cent of control [22]: 65%; kinase still bound, per cent of control [23]: 75%; kinase still bound, per cent of control [24]: 54%; kinase still bound, per cent of control [25]: 86%; kinase still bound, per cent of control [26]: 4.6%; kinase still bound, per cent of control [27]: 86%; kinase still bound, per cent of control [28]: 18%; kinase still bound, per cent of control [29]: 94%; kinase still bound, per cent of control [30]: 23%; kinase still bound, per cent of control [31]: 84%; kinase still bound, per cent of control [32]: 64%; kinase still bound, per cent of control [33]: 100%; kinase still bound, per cent of control [34]: 80%; kinase still bound, per cent of control [35]: 3.8%; kinase still bound, per cent of control [36]: 18%; kinase still bound, per cent of control [37]: 83%; kinase still bound, per cent of control [38]: 0.15%; kinase still bound, per cent of control [39]: 43%; kinase still bound, per cent of control [40]: 86%
CCN(CC)CCCCNc1ncc2c(n1)N(C)C(=O)N(c1c(Cl)c(OC)cc(OC)c1Cl)C2	100	100	100	100	100	100	100	100	100	100	100	100	100	100	100	100	100	100	100	100	kinase still bound, per cent of control [21]: 100%; kinase still bound, per cent of control [22]: 100%; kinase still bound, per cent of control [23]: 100%; kinase still bound, per cent of control [24]: 5.2%; kinase still bound, per cent of control [25]: 100%; kinase still bound, per cent of control [26]: 100%; kinase still bound, per cent of control [27]: 100%; kinase still bound, per cent of control [28]: 100%; kinase still bound, per cent of control [29]: 100%; kinase still bound, per cent of control [30]: 100%; kinase still bound, per cent of control [31]: 100%; kinase still bound, per cent of control [32]: 3%; kinase still bound, per cent of control [33]: 100%; kinase still bound, per cent of control [34]: 100%; kinase still bound, per cent of control [35]: 100%; kinase still bound, per cent of control [36]: 100%; kinase still bound, per cent of control [37]: 100%; kinase still bound, per cent of control [38]: 100%; kinase still bound, per cent of control [39]: 100%; kinase still bound, per cent of control [40]: 100%
